Laboratory results reported in article PMC11447909, “Substrate Specificity of a Methyltransferase Involved in the Biosynthesis of the Lantibiotic Cacaoidin” (Biochemistry, 2024).
Bridge positions count the residues as written; N and C are the ends. Square brackets hold non-standard residues; d marks the D form. Ends that are not written are not given here. Abu = CC[C@H](N)C(=O)O; Dhb = C/C=C(\N)C(=O)O; Dha = C=C(N)C(=O)O

What was measured:
CaoSC = experiment: In vitro methylation by His6-CaoSC with SAM (MALDI-TOF MS); assay type: biochemical, Streptomyces cacaoi CA-170360; conditions: 50 μM peptide, 5 μM His6-CaoSC, 1 mM SAM, 20 mM HEPES pH 7.5, overnight, 37 °C
Procedure: For methylation, the 50 μL assay contained 50 μM peptide, 5 μM His6–CaoSC, and 1 mM SAM in 20 mM HEPES buffer (pH 7.5). After overnight reaction at 37 °C, the proteins were denatured by adding 5 μL of 2% TFA and centrifuged for 10 min at 4500 rpm in a microcentrifuge at room temperature. The supernatant was desalted using an EMD Millipore C18 ziptip, and the peptide was eluted and analyzed by MALDI-TOF MS as described above.

[1] = target: His6-CaoSC (methyltransferase of the cacaoidin biosynthetic gene cluster) (Streptomyces cacaoi CA-170360); experiment: SEC; analytical SEC of purified His6-tagged CaoSC

Row | Substance | methylation by CaoSC (number of methyl groups installed at N-terminus) (CaoSC) | stoichiometry N [1]
1 | A[Dha]APATIK [synthetic 8-residue peptide with a dehydroamino acid at position 2] | not accepted | 
2 | nisin (I[Dhb]AI[Dha]LC[Abu]PGCK[Abu]GALMGCNMK[Abu]A[Abu]CHCSIHV[Dha]K; thioether 8-11, 13-19, 23-26, 25-28, 3-7; not fully specified (residues 7, 11, 19, 26, 28); UniProt P13068 24-57, looked up) [class I lanthipeptide, 34 residues, three dehydroamino acids, five Lan/MeLan rings; purchased from Sigma-Aldrich] | monomethylated | 
3 | His6-CaoSC (methyltransferase of the cacaoidin biosynthetic gene cluster) (enzyme) |  | 2
